The target in one assay is T1, Aldo-keto reductase family 1 member B1 (Homo sapiens, UniProt P15121). The assay is described as follows: Inhibition of aldose reductase at 37 uM.
As a reminder, the inhibition is the share of the control response that was lost under treatment. `O=C1N=C(O)S/C1=C\c1ccc(Oc2ccccc2)cc1` displayed an inhibition of 41%.

The target of another assay is Aldo-keto reductase family 1 member B1 (Bos taurus) (UniProt P16116). The assay is described as follows: Inhibition of bovine lens aldose reductase assessed as inhibition of […] oxidation at 13 uM by non-linear regression analysis.
Regarding `O=C1NC(=S)S/C1=C\c1ccc(-c2ccccc2)cc1`, the inhibition worked out at 28%.

A further assay shares this target. The assay is described as follows: Inhibition of bovine lens aldose reductase assessed as inhibition of […] oxidation at 16 uM by non-linear regression analysis.
Turning to `O=C1NC(=S)S/C1=C\c1ccc2ccccc2c1`, the inhibition came out at 40%.

For a further assay, the target named is T1, Aldo-keto reductase family 1 member B1. The experiment in a line: Inhibition of aldose reductase.
By IC50 is commonly meant the concentration that inhibits the measured activity by half. Regarding `O=C1NC(=O)/C(=C/c2cccc3ccccc23)S1`, it took 10.7 µM to reach half-maximal inhibition (IC50).

In turn, `COc1cccc(/C=C2\SC(=O)N(CC(=O)O)C2=O)c1` gave an IC50 of 0.48 µM.

For `O=C1NC(=O)/C(=C/c2ccc(O)cc2)S1`, the IC50 came out at 8.96 µM.

Consider `O=C(O)CN1C(=O)S/C(=C\c2cccc(Oc3ccccc3)c2)C1=O`, for which 0.13 µM corresponded to half-maximal inhibition (IC50).

Compound `O=C(O)CN1C(=O)S/C(=C\c2ccc(Oc3ccccc3)cc2)C1=O` yielded an IC50 of 0.82 µM.

The compound `O=C1NC(=O)/C(=C/c2cccc(Oc3ccccc3)c2)S1` registered an IC50 of 6.14 µM.

`O=C(O)CN1C(=O)S/C(=C\c2ccc(OCc3ccccc3)cc2)C1=O` returned an IC50 of 0.28 µM.

Consider `COc1cccc(/C=C2\SC(=O)NC2=O)c1`, for which half-maximal inhibition (IC50) required 13.3 µM.

`COc1ccc(/C=C2\SC(=O)NC2=O)cc1` showed an IC50 of 40.8 µM.

For a further assay, the target named is Aldo-keto reductase family 1 member B1 (Bos taurus) (UniProt P16116). The assay is described as follows: Inhibition of bovine lens aldose reductase assessed as inhibition of […] oxidation at 11 uM by non-linear regression analysis.
Take `O=C1NC(=S)S/C1=C\c1ccc(OCc2ccccc2)cc1`: the inhibition came to 7%.

Another assay addresses Aldo-keto reductase family 1 member B1 (Bos taurus, UniProt P16116). The assay is described as follows: Inhibition of bovine lens aldose reductase assessed as inhibition of […] oxidation by non-linear regression analysis.
As for `COc1cccc(/C=C2\SC(=S)N(CC(=O)O)C2=O)c1`, the IC50 is 0.15 µM.

For `O=C(O)CN1C(=O)/C(=C/c2cccc(OCc3ccccc3)c2)SC1=S`, the IC50 was 0.13 µM.

On to `O=C(O)CN1C(=O)/C(=C/c2ccc(Oc3ccccc3)cc2)SC1=S`, for which the IC50 was 0.11 µM.

Consider `O=C1NC(=S)S/C1=C\c1ccc(Oc2ccccc2)cc1`, for which the IC50 was determined as 1.1 µM.

As for `COc1cccc(/C=C2\SC(=S)NC2=O)c1`, the IC50 was 6.24 µM.

Regarding `O=C1NC(=S)S/C1=C\c1cccc2ccccc12`, the IC50 was found to be 2.27 µM.

As to `O=C1NC(=S)S/C1=C\c1cccc(OCc2ccccc2)c1`, the IC50 is 1.08 µM.

Take `O=C1NC(=S)S/C1=C\c1ccc(O)cc1`: the IC50 worked out at 4.55 µM.

With `O=C(O)CN1C(=O)/C(=C/c2cccc(Oc3ccccc3)c2)SC1=S`, the half-inhibitory concentration (IC50) amounted to 0.41 µM.

Turning to `COc1ccc(/C=C2\SC(=S)NC2=O)cc1`, the IC50 was 5.23 µM.

On to `O=C(O)CN1C(=O)/C(=C/c2ccc(OCc3ccccc3)cc2)SC1=S`, for which the IC50 turned out to be 0.19 µM.

For `O=C1NC(=S)S/C1=C\c1cccc(Oc2ccccc2)c1`, the IC50 was determined as 2.94 µM.

The target in a further assay is T1, Aldo-keto reductase family 1 member B1. The experiment in a line: Inhibition of aldose reductase at 50 uM.
For `O=C1NC(=O)/C(=C/c2ccc(-c3ccccc3)cc2)S1`, the inhibition turned out to be 20%.

In turn, `O=C1N=C(O)S/C1=C\c1ccc(OCc2ccccc2)cc1` had an inhibition of 10%.

For the origin of these results see ChEMBL document CHEMBL1641564, “In vitro evaluation of 5-arylidene-2-thioxo-4-thiazolidinones active as aldose reductase inhibitors” (Bioorg Med Chem Lett, 2011).
